Measured values from publication PMC3522636, “4F Decreases IRF5 Expression and Activation in Hearts of Tight Skin Mice” (PLoS ONE, 2012).
Entries after “also recorded” stand apart in the source; their conditions may differ.

Assays:
[1] = tested on: Human umbilical vein endothelial cells; test: Cellular uptake of B-4F in endothelial cells; assay type: cell-based; conditions: vs unlabeled 4F, confocal; for increase of fluorescence intensity in EC: 4 hours, fluorescein-streptavidin
Method: Human umbilical vein endothelial cells (EC; Lonza, Walkersville, MD) were incubated in EGM complete media containing 4F or B-4F (10 and 50 µg/ml) for 4 hours. The EC cultures were washed with PBS, fixed in PBS containing 1% paraformaldehyde, and permeabilized with PBS containing 0.5% Triton-X. The permeabilized sections were incubated with fluorescein-conjugated streptavidin (1 µg/ml) for 30 minutes followed by 3 PBS washes. The fixed and fluorescently labeled slides were mounted in aqueous mounting media and sections inspected and analyzed by confocal microscopy.

IRF5 = target: T1, IRF5 (Homo sapiens, UniProt Q13568); test: B-4F pulldown assay from EC cytosolic fractions spiked with recombinant IRF5; assay type: binding; conditions: immunoblot
T1 construct: purchased GenScript USA Inc
T1 sequence (Q13568 1-498): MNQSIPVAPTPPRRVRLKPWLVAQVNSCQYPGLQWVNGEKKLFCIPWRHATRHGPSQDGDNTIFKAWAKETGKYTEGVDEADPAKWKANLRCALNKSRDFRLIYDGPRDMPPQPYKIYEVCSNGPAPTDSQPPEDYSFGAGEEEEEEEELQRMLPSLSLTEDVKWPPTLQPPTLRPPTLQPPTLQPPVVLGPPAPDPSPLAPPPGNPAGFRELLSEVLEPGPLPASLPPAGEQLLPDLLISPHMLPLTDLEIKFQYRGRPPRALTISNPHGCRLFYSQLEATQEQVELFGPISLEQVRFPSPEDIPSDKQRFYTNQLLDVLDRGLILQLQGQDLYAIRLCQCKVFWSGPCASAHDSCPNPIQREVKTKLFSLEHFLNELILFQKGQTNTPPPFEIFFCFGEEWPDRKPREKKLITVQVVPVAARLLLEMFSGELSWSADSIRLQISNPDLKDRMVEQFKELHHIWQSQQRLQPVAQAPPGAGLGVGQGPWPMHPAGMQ
Method: B-4F Pulldown Assays: To determine whether 4F interacts with IRF5 in the presence of cystosol proteins, we performed 4F pulldown assays on EC cytosolic fractions spiked with recombinant IRF5. Briefly, cytosolic EC fractions were precleared with SA agarose beads (Cat#15942-050, Invitrogen) for 30 minutes at 4°C. IRF5 interactions were enhanced by adding recombinant IRF5 (2% wt/vol, Genscript USA Inc.) to the endothelial cytosolic fractions. 4F and B-4F were added to the cytosolic fractions and incubated for 3 hours at 4°C. SA agarose beads were added and the samples mixed end-over-end overnight at 4°C. The following day the SA agarose beads were isolated by centrifugation. The proteins associated with B-4F were released from the beads with Laemmli buffer and separated by SDS-PAGE (4–15%) as above. IRF5 levels in the pulldown samples were determined by autoradiography of immunoblots as above.

[2] = target: biotin-labeled 4F (biotin-labeled …-NH2); test: pull-down; B-4F added to precleared endothelial cell cytosolic fractions spiked with recombinant IRF5, 3 h at 4°C; SA agarose beads overnight at 4°C; immunoblot for IRF5

Row | Substance | increase of fluorescence intensity in EC ([1]; B-4F 10 µg/ml) | increase of fluorescence intensity in EC ([1]; B-4F 50 µg/ml, p≤0.05) [fold] | uptake into EC (in words) ([1]; B-4F 10 and 50 µg/ml, 4 hours (method), 3 hours (Figure 6)) | association with IRF5 in presence of EC cytosolic proteins (in words) (IRF5; 3 hours at 4°C, SA agarose beads overnight at 4°C) | IRF5 bound to the B-4F precipitate relative to control (IRF5; EC lysates with recombinant IRF5 (10 µg/mL), SA-agarose pulldown, lane 2 vs control lane 1) [fold] | fold IRF5 in the B-4F precipitate over control lane 1 [2] [fold]
1 | biotin-labeled DWFKAFYDKVAEKFKEAF-NH2 [B-4F, biotin-labeled 4F, synthesized with one more cycle with FMOC-Lys(biotinyl-ε-aminocaproyl)-OH] | approximately 30% | 3.6 | greater fluorescence in EC cultures incubated with 10 and 50 µg/ml of B-4F than in EC cultures incubated with equal concentrations of unlabeled 4F; also recorded: B-4F content is increased in ECs incubated with 10 and 50 µg/ml | associates with IRF5 even in the presence of EC cytosolic proteins | 2.5 | –
2 | recombinant IRF5 (from UniProt Q13568 1-498) (natural protein) | – | – | – | – | – | 2.5
